From US8999955B2, “Tetrahydrocyclopenta[c]acridine derivatives as kinase inhibitors and biological” (Centre National de la Recherche Scientifique, priority 2008, dated 2015)
pIC50: −log10 of the molar value. Several values for one entry are separate records, joined by “and”; a condition that tells them apart may be missing. Equal values may be shown once.

Legend:
CDK5 = CDK5 (Homo sapiens (Human), UniProt Q00535); experiment: Enzyme inhibition test, radiolabeled ATP, CDK5; assay type: biochemical; details: dose-response curves
Experimental: (§1) The tests are carried out as follows: the enzyme to be assayed was purified, for example by affinity chromatography on agarose beads. The catalytic activity was measured using radiolabeled ATP, at a standard final concentration. The test compounds were added at various concentrations making it possible to establish dose-response curves (activity of the enzyme as a function of the concentration). The IC50 values were calculated from these curves and are given in μM.

SHSY cells = experiment: MTS test, viability of SHSY cells; assay type: cell-based; details: MTS reduction
Experimental: The viability of SHSY cells is determined by measuring the MTS reduction as described in (6).

CDK1 = experiment: Enzyme inhibition test, radiolabeled ATP, CDK1; assay type: biochemical; details: dose-response curves
Experimental: as §1

CDK5, sequence (Q00535 whole entry, species assumed): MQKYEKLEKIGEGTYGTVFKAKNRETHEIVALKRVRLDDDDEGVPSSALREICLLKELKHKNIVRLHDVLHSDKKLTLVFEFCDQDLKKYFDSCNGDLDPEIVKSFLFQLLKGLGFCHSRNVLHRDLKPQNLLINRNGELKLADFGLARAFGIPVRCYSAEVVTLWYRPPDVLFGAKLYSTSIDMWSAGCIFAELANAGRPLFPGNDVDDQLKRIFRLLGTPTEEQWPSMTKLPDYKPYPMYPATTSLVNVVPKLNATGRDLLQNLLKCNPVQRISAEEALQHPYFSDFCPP
CDK5, sequence (Q15078 99-307 partner, species assumed): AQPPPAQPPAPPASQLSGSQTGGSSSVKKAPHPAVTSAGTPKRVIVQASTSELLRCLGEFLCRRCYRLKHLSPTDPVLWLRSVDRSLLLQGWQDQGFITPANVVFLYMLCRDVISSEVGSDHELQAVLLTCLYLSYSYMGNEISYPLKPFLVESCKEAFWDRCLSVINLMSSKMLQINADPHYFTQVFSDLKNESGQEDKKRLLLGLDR

SMILES | pIC50 (CDK5) | % survival of SHSY cells at 10 μM (SHSY cells) | melting point | pIC50 (CDK1)
C[Si](C)(C)C1=C2c3nc4ccccc4cc3C(O)CC2CC1=O (racemic) [5-Hydroxy-1-trimethylsilanyl-3,3a,4,5-tetrahydro-2H-cyclopenta[c]acridin-2-one] | 5.64 to 5.80 | 85% | 167 to 168 °C | 
C[Si](C)(C)C1=C2c3nc4ccccc4cc3C(O)CC2CC1=O (single isomer, unassigned) [5-hydroxy-1-trimethylsilanyl-3,3a,4,5-tetrahydro-2H-cyclopen] [5-hydroxy-1-trimethylsilanyl-3,3a,4,5-tetrahydro-2H-cyclopenta[c]acridin-2-one] | 4.59 and 5.52 |  |  | 
CC(=O)c1cc2ccccc2nc1C#Cc1ccccn1 [1-(2-(Pyridin-2-ylethynyl)quinolin-3-yl)ethanone] |  | 4% |  | 
C=CC(O)c1cc2ccccc2nc1C#C[Si](C)(C)C (stereo not drawn) [1-(2-(Trimethylsilanylethynyl)quinolin-3-yl)propan-2-en-1-ol] |  | 0.4% |  | 
C[Si](C)(C)C#Cc1nc2ccccc2cc1C(=O)CC[N+](=O)[O-] [1-(2-Trimethylsilanylethynyl)quinolin-3-yl)propan-3-nitro-1-one] |  | 47% |  | 
C=CCC(O)c1cc2ccccc2nc1C#CCOC1CCCCO1 (stereo not drawn) [1-(2-[3-(Tetrahydropyran-2-yloxy)prop-1-ynyl]quinolin-3-yl)but-3-en-1-ol] |  | 2% |  | 
C[Si](C)(C)C1=C2c3nc4ccccc4cc3C(Cl)CC2CC1=O (stereo not drawn) [5-Chloro-1-trimethylsilanyl-3,3a,4,5-tetrahydro-2H-cyclopenta[c]acridin-2-one] | 4.20 |  |  | 5.44
COc1cc2cc3c(nc2cc1OC)C1=C([Si](C)(C)C)C(=O)CC1CC3O (stereo not drawn) [5-Hydroxy-8,9-dimethoxy-1-trimethylsilanyl-3,3a,4,5-tetrahydro-2H-cyclopenta[c]acridin-2-one] | 5.48 |  | 221 to 222 °C | 5.77
COc1ccc2nc3c(cc2c1)C(O)CC1CC(=O)C([Si](C)(C)C)=C31 (stereo not drawn) [5-Hydroxy-8-methoxy-1-trimethylsilanyl-3,3a,4,5-tetrahydro-2H-cyclopenta[c]acridin-2-one] | 5.40 |  | 186 °C | 5.77
COc1ccc2cc3c(nc2c1)C1=C([Si](C)(C)C)C(=O)CC1CC3O (stereo not drawn) [5-Hydroxy-9-methoxy-1-trimethylsilanyl-3,3a,4,5-tetrahydro-2H-cyclopenta[c]acridin-2-one] | 5.32 | 44% | 187 °C | 5.80
CCCCC1=C2c3nc4ccccc4cc3C(=O)CC2CC1=O (stereo not drawn) [5-Keto-1-butyl-3,3a,4,5-tetrahydro-2H-cyclopenta[c]acridin-2-one] |  | 38% |  | 
